{"source": "paper PMC4658428", "about": "(Frontiers in Microbiology, 2015)", "type_in_all_cases": "cell-based", "key": {"[1]": {"tested_on": "S. meliloti strain SMP4A (ΔldtRSMc-pBBR1MCS-5::LdtR(T43A))"}, "[2]": {"tested_on": "LdtR mutant Y81A, lacZ reporter in B. subtilis"}, "[3]": {"tested_on": "LdtR mutant R37A, lacZ reporter in B. subtilis"}, "[4]": {"tested_on": "S. meliloti strain SMP4C (ΔldtRSMc-pBBR1MCS-5::LdtR(F64A))"}, "[5]": {"tested_on": "S. meliloti strain SMP4B (ΔldtRSMc-pBBR1MCS-5::LdtR(L61A))"}}}
{"smiles": "CCc1oc2ccccc2c1C(=O)c1cc(Br)c(O)c(Br)c1", "note": "[benzbromarone]", "values": [{"measurement": "Growth rate constant, k", "setting": "[1]", "value": "0.056 ± 0.004", "unit": "generations/h"}, {"measurement": "Mean generation time", "setting": "[1]", "value": 17.9, "unit": "h"}, {"measurement": "decrease in β-galactosidase activity", "setting": "[2]", "value": "around 40%"}, {"measurement": "decrease in β-galactosidase activity", "setting": "[3]", "value": "around 40%"}, {"measurement": "Growth rate constant, k", "setting": "[4]", "value": "0.058 ± 0.003", "unit": "generations/h"}, {"measurement": "Mean generation time", "setting": "[4]", "value": 17.2, "unit": "h"}, {"measurement": "Growth rate constant, k", "setting": "[5]", "value": "0.056 ± 0.005", "unit": "generations/h"}, {"measurement": "Mean generation time", "setting": "[5]", "value": 17.9, "unit": "h"}]}
